The values that follow come from ChEMBL document CHEMBL1152059, “Novel inhibitors of influenza sialidases related to zanamivir. Heterocyclic replacements of the glycerol sidechain” (Bioorg Med Chem Lett, 1997).

The target in the test is Neuraminidase (Influenza A virus (A/Puerto Rico/8/1934(H1N1)), UniProt P03468). The test is described as follows: Inhibitory activity against influenza A virus sialidase.

A word on the IC50: it is the concentration at which inhibition is half-maximal.

With `CC(=O)N[C@@H]1[C@@H](N)C=C(C(=O)O)O[C@H]1c1nc(-c2ccccc2)no1`, 14 µM corresponded to half-maximal inhibition (IC50).

`CC(=O)N[C@@H]1[C@@H](NC(=O)OC(C)(C)C)C=C(C(=O)OC(c2ccccc2)c2ccccc2)O[C@H]1c1nnc(Cc2ccccc2)[nH]1` had an IC50 of 87 µM. `CC(=O)N[C@@H]1[C@@H](N)C=C(C(=O)O)O[C@H]1c1nc(C)no1` displayed an IC50 of 23 µM. Compared with the last compound, the IC50 is about 3.8-fold lower.

As for `CCCn1nc([C@@H]2OC(C(=O)OC(c3ccccc3)c3ccccc3)=C[C@H](NC(=O)OC(C)(C)C)[C@H]2NC(C)=O)nc1Cc1ccccc1`, half-maximal inhibition (IC50) was put at 12 µM. Compared with the last compound, the IC50 is about 1.9-fold lower. For `CCCCc1nnc([C@@H]2OC(C(=O)O)=C[C@H](N)[C@H]2NC(C)=O)n1CCC`, it took 0.33 µM to reach half-maximal inhibition (IC50). The same measure for `CCCn1nc(Cc2ccccc2)nc1[C@@H]1OC(C(=O)OC(c2ccccc2)c2ccccc2)=C[C@H](NC(=O)OC(C)(C)C)[C@H]1NC(C)=O`: 0.07 µM.

Turning to `CC(=O)N[C@@H]1[C@@H](N)C=C(C(=O)O)O[C@H]1c1nc(Cc2ccccc2)no1`, the concentration for half-maximal inhibition (IC50) stood at 99 µM. Against the preceding compound, the IC50 is about 1400-fold higher. Consider `CCCCc1noc([C@@H]2OC(C(=O)O)=C[C@H](N)[C@H]2NC(C)=O)n1`, for which the IC50 was 56 µM.
